From patent US20240182453A1, “NOVEL SUBSTITUTED PYRAZINE-CARBOXAMIDE DERIVATIVES” (Boehringer Ingelheim International GmbH, priority 2022, published 2024) come the findings set out here.

The IC50 is the concentration that inhibits the measured activity by half.

Chain of human metabotropic Glutamate 4 receptor (mGluR4) (Q14833 33-912): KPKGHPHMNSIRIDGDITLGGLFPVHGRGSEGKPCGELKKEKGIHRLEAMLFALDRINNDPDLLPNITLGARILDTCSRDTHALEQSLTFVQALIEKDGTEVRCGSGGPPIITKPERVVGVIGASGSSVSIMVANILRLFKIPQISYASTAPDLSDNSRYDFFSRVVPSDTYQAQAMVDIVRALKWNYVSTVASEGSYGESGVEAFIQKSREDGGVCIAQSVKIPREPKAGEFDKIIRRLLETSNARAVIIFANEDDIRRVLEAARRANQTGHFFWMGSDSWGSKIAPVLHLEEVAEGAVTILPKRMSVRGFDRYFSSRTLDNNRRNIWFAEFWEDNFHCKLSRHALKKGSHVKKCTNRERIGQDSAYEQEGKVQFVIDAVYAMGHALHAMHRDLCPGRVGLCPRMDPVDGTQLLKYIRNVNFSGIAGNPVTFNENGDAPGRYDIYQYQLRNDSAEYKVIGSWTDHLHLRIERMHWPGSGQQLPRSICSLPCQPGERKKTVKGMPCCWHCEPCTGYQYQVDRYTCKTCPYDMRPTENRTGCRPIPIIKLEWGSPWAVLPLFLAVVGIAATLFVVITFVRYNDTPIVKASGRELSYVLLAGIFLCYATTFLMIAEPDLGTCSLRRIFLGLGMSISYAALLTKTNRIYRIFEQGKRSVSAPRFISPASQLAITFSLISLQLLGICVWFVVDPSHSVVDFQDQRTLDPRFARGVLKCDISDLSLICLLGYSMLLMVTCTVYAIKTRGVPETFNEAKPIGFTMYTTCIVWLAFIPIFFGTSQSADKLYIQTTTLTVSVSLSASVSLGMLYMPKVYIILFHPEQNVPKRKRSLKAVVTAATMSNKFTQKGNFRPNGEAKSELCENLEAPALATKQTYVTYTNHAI

The assay concerns the target human metabotropic Glutamate 4 receptor (mGluR4) (Homo sapiens (Human), UniProt Q14833). The assay can be described thus: Assay A: in vitro testing of mGluR4 potency (glutamate-induced cAMP lowering, HTRF cAMP). It is filed as cell-based. The following applies: HEK293 cells overexpressing human mGluR4; 10 uM L-glutamic acid, 1 uM forskolin; compounds of the present invention. Summed up:
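HEK293 cells overexpressing human mGluR4 treated 30 min at room temperature with compound plus 10 uM L-glutamate, 1 uM forskolin, 0.5 mM IBMX, 0.1% BSA, 1% DMSO. cAMP read by HTRF (665/615 nm ratio), normalized to glutamate (100%) and no-glutamate (0%) controls as percent of control.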
On the technique in general: TR-FRET usually uses a lanthanide donor and a delayed reading to cut background.
Take `Cn1c([C@@H](NC(=O)c2cnc(C(F)F)cn2)[C@H]2CCCO2)nc2cc(OC(F)(F)F)ccc21` [Example 113, 5-(difluoromethyl)-N-[(R)-[1-methyl-5-(trifluoromethoxy)-1H-1,3-benzodiazol-2-yl][(2R)-oxolan-2-yl]methyl]pyrazine-2-carboxamide]: half-maximal inhibition (IC50) was put at 17 nM. Take `Cn1c(C(NC(=O)c2cnc(C(F)F)cn2)C2CCCO2)nc2cc(OC(F)(F)F)ccc21` (stereo not drawn) [Example 113-1, 5-(difluoromethyl)-N-{[1-methyl-5-(trifluoromethoxy)-1H-1,3-benzodiazol-2-yl](oxolan-2-yl)methyl}pyrazine-2-carboxamide]: the IC50 turned out to be 45 nM. Compound `O=C(N[C@@H](CC1CC1)c1nc2cc(F)ccc2n1C1CC1)c1cnc(C(F)F)cn1` [Example 114, N-[(1S)-2-cyclopropyl-1-(1-cyclopropyl-5-fluoro-1H-1,3-benzodiazol-2-yl)ethyl]-5-(difluoromethyl)pyrazine-2-carboxamide] had an IC50 of 15 nM. Take `Cc1cnc(C(=O)N[C@H](c2nc3cc(OC(F)(F)F)ccc3n2C2CC2)C2CC2)cn1` [Example 115, N-[(S)-cyclopropyl[1-cyclopropyl-5-(trifluoromethoxy)-1H-1,3-benzodiazol-2-yl]methyl]-5-methylpyrazine-2-carboxamide]: half-maximal inhibition (IC50) was put at 9 nM. The compound `Cc1cnc(C(=O)N[C@H](c2nc3cc(C(F)(F)F)ccc3n2C2CC2)C2CC2)cn1` [Example 116, N-[(S)-cyclopropyl[1-cyclopropyl-5-(trifluoromethyl)-1H-1,3-benzodiazol-2-yl]methyl]-5-methylpyrazine-2-carboxamide] registered a 50% inhibitory concentration (IC50) of 13 nM. Compound `O=C(N[C@@H](CC1CC1)c1nc2cc(Cl)ccc2n1C1CC1)c1cnc(C(F)F)cn1` [Example 117, N-[(1S)-1-(5-chloro-1-cyclopropyl-1H-1,3-benzodiazol-2-yl)-2-cyclopropylethyl]-5-(difluoromethyl)pyrazine-2-carboaxamide] had an IC50 of 8 nM.

Turning to `O=C(N[C@@H](CC1CC1)c1nc2cc(F)c(F)cc2n1C1CC1)c1cnc(C(F)F)cn1` [Example 118, N-[(1S)-2-cyclopropyl-1-(1-cyclopropyl-5,6-difluoro-1H-1,3-benzodiazol-2-yl)ethyl]-5-(difluoromethyl)pyrazine-2-carboxamide], it took 14 nM to reach half-maximal inhibition (IC50).

In the case of `CO[C@H](C)[C@H](NC(=O)c1cnc(C)cn1)c1nc2cc(OC(F)(F)F)ccc2n1CCOC1CC1` [Example 119, N-[(1R,2R)-1-[1-(2-cyclopropoxyethyl)-5-(trifluoromethoxy)-1H-1,3-benzodiazol-2-yl]-2-methoxypropyl]-5-methylpyrazine-2-carboxamide], the IC50 was found to be 1 nM. In turn, `CO[C@H](C)[C@H](NC(=O)c1cnc(C)cn1)c1nc2cc(OC(F)(F)F)ccc2n1CCOC1CCC1` [Example 120, N-[(1R,2R)-1-[1-(2-cyclobutoxyethyl)-5-(trifluoromethoxy)-1H-1,3-benzodiazol-2-yl]-2-methoxypropyl]-5-methylpyrazine-2-carboxamide] showed an IC50 of 1 nM. Take `COCCn1c([C@@H](NC(=O)c2cnc(C(F)F)cn2)[C@@H](C)OC)nc2cc(OC(F)(F)F)ccc21` [Example 121, 5-(difluoromethyl)-N-[(1R,2R)-2-methoxy-1-[1-(2-methoxyethyl)-5-(trifluoromethoxy)-1H-1,3-benzodiazol-2-yl]propyl]pyrazine-2-carboxamide]: the IC50 was 1 nM. Regarding `Cc1cnc(C(=O)N[C@H](c2nc3c(C4CC4)c(Br)ccc3n2C)C2CC2)cn1` [Example 122, N-[(S)-(5-bromo-4-cyclopropyl-1-methyl-1H-1,3-benzodiazol-2-yl)(cyclopropyl)methyl]-5-methylpyrazine-2-carboxamide], the IC50 stood at 1 nM. `CO[C@H](C)[C@H](NC(=O)c1cnc(C)cn1)c1nc2cc(OC(F)(F)F)ccc2n1C(C)C` [Example 123, N-[(1R,2R)-2-methoxy-1-[1-(propan-2-yl)-5-(trifluoromethoxy)-1H-1,3-benzodiazol-2-yl]propyl]-5-methylpyrazine-2-carboxamide] showed an IC50 of 3 nM.
